For data set [1], the system named is H460 cells. In words: proliferation / viable cell count (trypan blue) of H460 cells. Format: cell-based, human. As to conditions: for proliferation of H460 NSCLC cells, viable cells by Trypan blue exclusion: increasing concentrations, counts at 48 hours shown. Here is the method:
Cell Viability: Cells were incubated in 20% trypan blue (Sigma) for 5 minutes. Cells excluding trypan blue were counted using a standard hemocytometer (Hausser Scientific) to determine total numbers of viable cells. Data are expressed as mean±SD of three experiments. Proliferation Assays: H460 non-small cell lung cancer cells were plated in 24 well plates and exposed to increasing concentrations of the indicated inhibitors of Formula IV (FBR1-02 corresponds to [drawing 47] DMSO was used as vehicle. After 24, 48 and 72 hours of exposure, cells were detached and viable cells were counted by Trypan blue exclusion (representative counts at 48 hours shown).

Data set [2] has as its system H460 cells. In words: F2,6BP measurements in H460 cells. Format: cell-based, human. The note with it: H460, indicated concentrations of MPN-2. Here is the method:
F2,6BP measurements: Cells or tissues were prepared as previously described and F2,6BP content measured using a coupled enzyme reaction following the method of Van Schaftingen et at (Van Schaftingen E et al. A kinetic study of pyrophosphate: fructose-6-phosphate phosphotransferase from potato tubers. Application to a microassay of fructose 2,6-bisphosphate. Eur J Biochem 1982 December; 129(1): 191-5) and normalized to total cellular protein measured by the bicinchoninic acid assay (BCA, Thermo Scientific). […] In order to measure F2,6BP, cells were harvested, washed with PBS, lysed in NaOH/Tris acetate by heating at 80° C. and lysates neutralized to pH 7.2. F2,6BP content was measured using a coupled enzyme reaction following the method of Van Schaftingen et al (Eur J Biochem. 1982; 129(1): 191-195). The F2,6BP concentration was normalized to total cellular protein measured by the bicinchoninic acid assay (BCA, Thermo Scientific) All data are expressed as the mean±SD of three experiments. Statistical significance was assessed by the two-sample t test (independent variable).

The subject of data set [3] is H460 cells. In words: Glycolysis assay (3H2O from 5-[3H]glucose) in H460 cells. In kind it is cell-based, human. The note with it: H460, indicated concentrations of MPN-2, 48 hours. Here is the method: Cells growing in 6-well plates were incubated in 500 μl of complete medium containing 1 μCi of 5-[^3H]glucose per well for 60 min in 5% CO2 at 37° C. Media was collected, ^3H2O formed via glycolysis from the 5-[^3H]glucose measured and counts normalized as previously described. For example, the medium was then collected and centrifuged to pellet any suspended cells. To separate the ^3H2O formed via glycolysis from the 5-[^3H]glucose added to the medium, an evaporation technique in a sealed system was utilized. Briefly, 150 μl aliquots of medium were added to open tubes that were placed upright inside scintillation vials containing 1 ml of H2O. The scintillation vials were sealed, and the ^3H2O produced by glycolysis through enolase and released to the medium was allowed to equilibrate with the H2O in the outer vial for 48 h at 37° C. The amounts of ^3H2O that had diffused into the surrounding H2O was measured on a Tri-Carb 2910 liquid scintillation analyzer (Perkin Elmer) and compared with ^3H2O and 5-[^3H]glucose standards. Protein concentration was determined using the BCA assay and counts were normalized to protein concentration. All data are expressed as the mean±SD of three experiments. Statistical significance was assessed by the two-sample t test (independent variable).

The subject of data set [4] is H460 cells. Put plainly: ATP measurements in H460 cells. As to conditions: H460, indicated concentrations of MPN-2, 48 hours. In kind it is cell-based, human. How it is done:
Cells were lysed and intracellular ATP determined as described previously. For example, cells were washed (while still adherent) with cold PBS 1×, lysed with Passive Lysis Buffer (1×; Molecular Probes, Invitrogen) added directly to the plates, and immediately harvested by scraping. The lysates were flash frozen (to −80° C.) and thawed (to 37° C.) once to accomplish complete lysis and then centrifuged (at 4° C.) for 30 seconds to clear the lysates. Intracellular ATP levels were determined using a bioluminescence assay (Molecular Probes), utilizing recombinant firefly luciferase and its substrate, D-luciferin. The luminescence was read in a TD-20/20 luminometer (Turner Designs) at 560 nm. The ATP values were calculated using an ATP standard curve. The protein concentrations of the lysates were estimated using the BCA assay (Pierce Biotechnology) and ATP was expressed as pmol/μg protein. All data are expressed as the mean±SD of three experiments. Statistical significance was assessed by the two-sample t test (independent variable).

For data set [5], the system named is SK-BR-3. In words: proliferation of SK-BR-3 cells. Format: cell-based. As to conditions: SK-BR-3, 24-72 hours (72 hours shown). Here is the method: Cell Viability: Cells were incubated in 20% trypan blue (Sigma) for 5 minutes. Cells excluding trypan blue were counted using a standard hemocytometer (Hausser Scientific) to determine total numbers of viable cells. Data are expressed as mean±SD of three experiments.

Data set [6] is described as follows: oral and intravenous pharmacokinetics of MPN-2. Format: in vivo. The note with it: CD-1 mice (N=3).
For data set [7], the system named is Lewis lung carcinomas. In words: Lewis lung carcinoma tumor growth in mice. In kind it is in vivo, C57BL/6 mice. The note with it: C57BL/6 mice, intraperitoneal injection 10 mg/kg daily, eleven days.

On to `COc1cccc2c(NCCCCCNS(C)(=O)=O)ccnc12` [FBR1-09], for which the “proliferation of H460 NSCLC cells, viable cells by Trypan blue exclusion” value in data set [1] was “decreased proliferation of cancer cells”.
Turning to “5-[(8-methoxy-2-methylquinolin-1-ium-4-yl)amino]pentyl nitrate [MPN-2]”, the “F2,6BP production” value in data set [2] is recorded as “significantly inhibited”. The intracellular glycolysis result in data set [3] was “significantly decreased”. In addition, in data set [4], the ATP production entry is listed as “significantly decreased”. Also, the proliferation entry in data set [1] (H460, 24-72 hours (72 hours shown)) is on record as “decreased proliferation”; in data set [5] it was “decreased proliferation”. For the same compound, in data set [1] (H460 NSCLC, 48 hours and 72 hours), the “proliferation, viable cells” value is on record as “decreased the proliferation”. For the same compound, the oral bioavailability result in data set [6] is recorded as “high oral bioavailability”. Besides, in data set [7], the “tumor growth of Lewis lung carcinomas” value is on record as “suppressed the growth”.
Take `O=[N+]([O-])OCCCCCNc1ccnc2ccccc12` [FBR1-02]: the “proliferation of H460 NSCLC cells, viable cells by Trypan blue exclusion” value in data set [1] is recorded as “decreased proliferation of cancer cells”.

(Values after patent publication US12377087B2, “Compounds for the treatment of cancer” (UNIVERSITY OF LOUISVILLE RESEARCH FOUNDATION, INC., priority 2015, dated 2025).)
